Data taken from patent publication US12187749B2, “Application of dipyrrinato-iridium complexes in anti-tumor and anti-bacterial therapy” (BIOLITEC UNTERGEHMENSBETEILIGUNGS II AG, priority 2020, dated 2025).

What was measured:
[1] = test system: Staphylococcus aureus DSM 1104; assay: Antibacterial testing (CFU/ml count) against S. aureus; assay type: cell-based; conditions: photosensitizer 100, 10 and 1 μM; for antibacterial activity against S. aureus in the absence of light: absence of light (dark toxicity control), 30 min incubation
Protocol: The organisms studied were Staphylococcus aureus DSM 1104, Gram-positive and Pseudomonas aeruginosa DSM 1117, Gram-negative. Cultures cells are suspended in sterile phosphate-buffered saline (PBS) or sterile PBS supplemented with 10% sterile horse blood serum. The bacterial suspensions are placed into sterile black well plates with clear bottoms. Concentrations of photosensitizer used in the study were as follows: 100 μM, 10 μM and 1 μM. After an incubation time period of 30 minutes, the samples are exposed to white light, with a power density and irradiation time resulting in an energy fluency of about 100 J/cm^2. Control plates contained no photosensitizer and are not exposed to laser light. The control samples for dark toxicity are only exposed to photosensitizer without any illumination. After irradiation, the samples are removed and suspended again in the culture media. The numbers of colony-forming units (CFU/ml) are enumerated after an adequate incubation time period.

[2] = test system: HT 29 and other cell lines; assay: Cell tests (XTT cell viability), dark toxicity, in HT 29 and other cell lines; assay type: cell-based; conditions: 2 or 10 μM photosensitizer, 24 h incubation, XTT assay
Protocol: The photosensitizing activity was determined in the following cell lines: • HT29 (human colon adenocarcinoma cell line) • L929 (mouse fibroblast cell line) • A431 (human epidermoid carcinoma cell line) • A253 (submaxillary salivary gland, epidermoid cell line) • CAL-27 (human tongue squamous cell carcinoma cell line) • J774A.1 (Mouse BALB/c monocyte macrophage).
The cell lines were grown in DMEM (c.c.pro GmbH) supplemented with 10% heat-inactivated fetal calf serum (FCS, c.c.pro GmbH), 1% penicillin (10000 IU) and streptomycin (10000 μg/ml, c.c.pro GmbH). Cells were kept as a monolayer culture in a humidified incubator (5% CO2 in air at 37° C.). A photosensitizer stock solution (2 mM) was performed in DMSO and was kept in the dark at 4° C. Further dilution was performed in DMEM medium without phenol red supplemented with 10% FCS to reach a final photosensitizer concentration of 2 or 10 μM, respectively. After seeding the cells in micro plates, the cells were incubated with fresh medium (DMEM without phenol red) containing 10% FCS with 2 or 10 μM of the photosensitizer for 24 h before light exposure. Before photosensitization, cells were washed, cell culture medium was exchanged with DMEM without phenol red and 10% FCS, then irradiated at room temperature with white light source at a fixed fluence rate of about 100 mW/cm^2 (50 J/cm^2). Following irradiation, cells were incubated in a humidified incubator (5% CO2 in air at 37° C.) for 24 h until cell viability assay. The cell viability was assessed by the XTT assay. 500 mg XTT (sodium 3′-[phenyl-aminocarbonyl)-3,4-tetrazolium]-bis(4-methoxy-6-nitro)benzene sulfonic acid, Applichem GmbH) is dissolved in 500 ml PBS-Buffer (without Ca^2+ and Mg^2) and sterile filtered. Solution was stored in the dark at −20° C. until use. A sterile solution containing PMS (N-methyl dibenzopyrazine methyl sulfate, Applichem GmbH) was needed as an activation reagent for the XTT. 0.383 mg PMS was dissolved in 1 ml PBS-Buffer. […] The absorbance of the samples was measured with a microplate reader (Infinite 200, Tecan Group Ltd.) at a wavelength of 490 nm.

Row | Substance | antibacterial activity against S. aureus in the absence of light [1] | antibacterial activity in the presence of complex media (serum addition) ([1]; PBS supplemented with 10% sterile horse blood serum) | toxicity to cells in the absence of light (dark toxicity) [2]
1 | Bis(2-phenylpyridyl){5-[2,3,5,6-tetrafluoro-4-(1′-thio-β-D-glucosyl)phenyl]-dipyrrinato}iridium(III) [Example 3.3] | high antibacterial activity | – | –
2 | Bis(2-phenylpyridyl){5-[2,3,5,6-tetrafluoro-4-(1′-thio-β-D-galactosyl)phenyl]-dipyrrinato}iridium(III) [Example 3.4] | high antibacterial activity | antibacterial activity is also observed | –
3 | Chlorido{5-[4-(N,N-dibutylamino)-3-nitrophenyl]dipyrrinato}(pentamethyl-cyclopentadienyl)iridium(III) [Example 1.6] | – | – | non-toxic
4 | [5-(4-Butyloxy-2,3,5,6-tetrafluorophenyl)dipyrrinato]chlorido-(pentamethylcyclopentadienyl)iridium(III) [Example 1.3] | – | – | non-toxic
5 | {5-[4-(N-Butylamino)-2,3,5,6-tetrafluorophenyl]dipyrrinato}chlorido-(pentamethylcyclopentadienyl)iridium(III) [Example 1.2] | – | – | non-toxic
6 | {5-[4-(N-2-Hydroxyethylamino)-2,3,5,6-tetrafluorophenyl]dipyrrinato}bis(2-phenyl-pyridyl)iridium(III) [Example 2.1] | high antibacterial activity | – | –
